From the kinase profiling compilation of Christmann-Franck et al. (2016)
Values joined by “and” are separate entries in the source; they are usually repeats but may differ in a detail not shown here. Equal values may be shown once.

Assays:
Experiment in all cases: radiometric filter-binding kinase assay, Kinase HotSpot
Details in all cases: compound 0.5 µM; ATP 10 µM
RPS6KA4 KD2 (human) = RPS6KA4 KD2 (human) (UniProt O75676)
PRKCZ (human) = PRKCZ (human) (UniProt Q05513)
WNK2 (human) = WNK2 (human) (UniProt Q9Y3S1)
AURKA (human) = AURKA (human) (UniProt O14965)
MAP3K3 (human) = MAP3K3 (human) (UniProt Q99759)
PTK2B (human) = PTK2B (human) (UniProt Q14289)
GRK7 (human) = GRK7 (human) (UniProt Q8WTQ7)
PAK3 (human) = PAK3 (human) (UniProt O75914)
CHEK1 (human) = CHEK1 (human) (UniProt O14757)
CDK2 CCNE1 (human) = CDK2 CCNE1 (human) (UniProt P24941+P24864)
EPHA3 (human) = EPHA3 (human) (UniProt P29320)
Chain of EPHA3 (human) (P29320 whole entry, looked up): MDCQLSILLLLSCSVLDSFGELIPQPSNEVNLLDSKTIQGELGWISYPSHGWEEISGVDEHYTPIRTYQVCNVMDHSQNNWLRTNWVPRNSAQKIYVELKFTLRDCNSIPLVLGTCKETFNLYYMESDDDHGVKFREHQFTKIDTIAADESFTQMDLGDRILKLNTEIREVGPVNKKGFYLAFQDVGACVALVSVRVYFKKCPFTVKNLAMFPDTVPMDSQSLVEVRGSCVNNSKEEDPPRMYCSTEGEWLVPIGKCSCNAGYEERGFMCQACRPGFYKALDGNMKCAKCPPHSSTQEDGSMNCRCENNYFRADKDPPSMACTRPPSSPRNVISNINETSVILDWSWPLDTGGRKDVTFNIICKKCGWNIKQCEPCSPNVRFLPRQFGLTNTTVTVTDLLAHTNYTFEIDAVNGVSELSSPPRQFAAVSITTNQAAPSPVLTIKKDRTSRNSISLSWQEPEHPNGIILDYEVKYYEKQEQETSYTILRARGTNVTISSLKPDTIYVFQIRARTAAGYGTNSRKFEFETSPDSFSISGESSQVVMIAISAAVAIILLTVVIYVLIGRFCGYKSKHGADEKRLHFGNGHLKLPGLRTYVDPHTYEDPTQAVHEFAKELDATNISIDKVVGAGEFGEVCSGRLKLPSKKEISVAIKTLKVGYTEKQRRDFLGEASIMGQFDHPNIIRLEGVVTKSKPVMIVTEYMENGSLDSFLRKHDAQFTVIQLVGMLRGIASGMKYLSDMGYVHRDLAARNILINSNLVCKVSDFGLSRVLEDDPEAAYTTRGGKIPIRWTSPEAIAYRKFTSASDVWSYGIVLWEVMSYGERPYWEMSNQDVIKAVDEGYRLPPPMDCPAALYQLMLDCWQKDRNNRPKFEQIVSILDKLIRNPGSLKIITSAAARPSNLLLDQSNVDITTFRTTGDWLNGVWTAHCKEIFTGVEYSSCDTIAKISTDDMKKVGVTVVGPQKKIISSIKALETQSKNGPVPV

DYRK1B (human) = DYRK1B (human) (UniProt Q9Y463)
DCLK2 (human) = DCLK2 (human) (UniProt Q8N568)
MET (human) = MET (human) (UniProt P08581)
CDC42BPA (human) = CDC42BPA (human) (UniProt Q5VT25)
Chain of CDC42BPA (human) (Q5VT25 whole entry, looked up): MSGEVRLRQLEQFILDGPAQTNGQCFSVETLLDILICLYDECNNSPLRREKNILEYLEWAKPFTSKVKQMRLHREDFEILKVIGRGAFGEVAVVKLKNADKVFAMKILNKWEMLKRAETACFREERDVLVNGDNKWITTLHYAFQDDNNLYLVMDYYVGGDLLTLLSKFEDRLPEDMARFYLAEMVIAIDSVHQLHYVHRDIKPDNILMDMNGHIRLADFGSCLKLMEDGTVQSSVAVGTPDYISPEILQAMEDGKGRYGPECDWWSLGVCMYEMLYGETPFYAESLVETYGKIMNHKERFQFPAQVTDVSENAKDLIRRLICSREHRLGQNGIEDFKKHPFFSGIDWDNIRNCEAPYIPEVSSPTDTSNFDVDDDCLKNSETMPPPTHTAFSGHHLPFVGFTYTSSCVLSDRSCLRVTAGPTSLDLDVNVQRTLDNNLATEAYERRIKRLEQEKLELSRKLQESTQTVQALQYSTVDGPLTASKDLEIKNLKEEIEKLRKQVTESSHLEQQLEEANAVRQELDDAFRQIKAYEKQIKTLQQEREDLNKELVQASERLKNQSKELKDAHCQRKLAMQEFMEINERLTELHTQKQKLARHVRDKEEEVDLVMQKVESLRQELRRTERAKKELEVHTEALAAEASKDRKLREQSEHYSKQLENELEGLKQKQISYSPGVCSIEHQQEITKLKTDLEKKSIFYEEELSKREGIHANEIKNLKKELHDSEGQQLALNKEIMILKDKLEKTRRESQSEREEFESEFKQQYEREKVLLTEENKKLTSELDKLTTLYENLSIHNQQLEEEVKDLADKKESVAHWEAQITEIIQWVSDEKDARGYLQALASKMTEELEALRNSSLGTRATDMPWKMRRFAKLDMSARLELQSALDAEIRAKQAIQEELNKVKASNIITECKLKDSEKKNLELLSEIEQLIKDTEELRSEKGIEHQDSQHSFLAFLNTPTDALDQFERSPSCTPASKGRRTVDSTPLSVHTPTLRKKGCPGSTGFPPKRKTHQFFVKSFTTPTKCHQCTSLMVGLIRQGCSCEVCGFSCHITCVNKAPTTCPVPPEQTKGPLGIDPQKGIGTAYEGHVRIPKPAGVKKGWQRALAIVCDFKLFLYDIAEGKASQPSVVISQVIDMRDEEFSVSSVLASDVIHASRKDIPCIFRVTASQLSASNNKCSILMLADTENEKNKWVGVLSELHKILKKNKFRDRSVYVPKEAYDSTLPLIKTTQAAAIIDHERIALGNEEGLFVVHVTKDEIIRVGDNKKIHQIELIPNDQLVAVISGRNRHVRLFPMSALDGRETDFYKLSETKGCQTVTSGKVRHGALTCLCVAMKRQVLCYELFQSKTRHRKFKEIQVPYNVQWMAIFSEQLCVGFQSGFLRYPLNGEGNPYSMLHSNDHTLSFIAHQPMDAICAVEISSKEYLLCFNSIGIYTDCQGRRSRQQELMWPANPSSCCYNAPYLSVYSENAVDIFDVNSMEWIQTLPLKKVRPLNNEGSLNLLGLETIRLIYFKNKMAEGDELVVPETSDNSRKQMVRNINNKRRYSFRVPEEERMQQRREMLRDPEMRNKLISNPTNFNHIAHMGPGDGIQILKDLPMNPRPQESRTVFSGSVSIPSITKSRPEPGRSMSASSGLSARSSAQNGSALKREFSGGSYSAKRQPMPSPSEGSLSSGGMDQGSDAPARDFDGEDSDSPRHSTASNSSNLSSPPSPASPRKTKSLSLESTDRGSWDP

EPHA1 (human) = EPHA1 (human) (UniProt P21709)
PBK (human) = PBK (human) (UniProt Q96KB5)
HCK (human) = HCK (human) (UniProt P08631)
NEK1 (human) = NEK1 (human) (UniProt Q96PY6)
CLK1 (human) = CLK1 (human) (UniProt P49759)
MARK2 (human) = MARK2 (human) (UniProt Q7KZI7)
NTRK3 (human) = NTRK3 (human) (UniProt Q16288)
PRKCA (human) = PRKCA (human) (UniProt P17252)
PRKCH (human) = PRKCH (human) (UniProt P24723)
MAPK3 (human) = MAPK3 (human) (UniProt P27361)
FLT1 (human) = FLT1 (human) (UniProt P17948)
PRKCB2 (human) = PRKCB2 (human) (UniProt P05771)
PLK1 (human) = PLK1 (human) (UniProt P53350)
SIK2 (human) = SIK2 (human) (UniProt Q9H0K1)
MAPKAPK5 (human) = MAPKAPK5 (human) (UniProt Q8IW41)
Chain of MAPKAPK5 (human) (Q8IW41 whole entry, looked up): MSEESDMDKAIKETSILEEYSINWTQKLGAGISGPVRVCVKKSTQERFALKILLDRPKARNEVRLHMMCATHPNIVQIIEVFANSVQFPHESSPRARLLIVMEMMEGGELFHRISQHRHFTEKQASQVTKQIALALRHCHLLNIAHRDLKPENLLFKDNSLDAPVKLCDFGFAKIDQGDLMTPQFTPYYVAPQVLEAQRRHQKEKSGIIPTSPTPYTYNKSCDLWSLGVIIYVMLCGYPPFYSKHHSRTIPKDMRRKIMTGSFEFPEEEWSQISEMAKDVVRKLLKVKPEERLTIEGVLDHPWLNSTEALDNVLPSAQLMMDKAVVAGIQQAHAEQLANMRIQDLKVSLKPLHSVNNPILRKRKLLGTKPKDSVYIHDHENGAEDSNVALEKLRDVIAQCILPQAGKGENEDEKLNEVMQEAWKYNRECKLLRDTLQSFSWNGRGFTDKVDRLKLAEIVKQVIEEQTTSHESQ

CSNK2A1 (human) = CSNK2A1 (human) (UniProt P68400)
CDK6 CCND3 (human) = CDK6 CCND3 (human) (UniProt P30281+Q00534)
YES1 (human) = YES1 (human) (UniProt P07947)
CAMKK2 (human) = CAMKK2 (human) (UniProt Q96RR4)
MAPK8 (human) = MAPK8 (human) (UniProt P45983)
Chain of MAPK8 (human) (P45983 whole entry, looked up): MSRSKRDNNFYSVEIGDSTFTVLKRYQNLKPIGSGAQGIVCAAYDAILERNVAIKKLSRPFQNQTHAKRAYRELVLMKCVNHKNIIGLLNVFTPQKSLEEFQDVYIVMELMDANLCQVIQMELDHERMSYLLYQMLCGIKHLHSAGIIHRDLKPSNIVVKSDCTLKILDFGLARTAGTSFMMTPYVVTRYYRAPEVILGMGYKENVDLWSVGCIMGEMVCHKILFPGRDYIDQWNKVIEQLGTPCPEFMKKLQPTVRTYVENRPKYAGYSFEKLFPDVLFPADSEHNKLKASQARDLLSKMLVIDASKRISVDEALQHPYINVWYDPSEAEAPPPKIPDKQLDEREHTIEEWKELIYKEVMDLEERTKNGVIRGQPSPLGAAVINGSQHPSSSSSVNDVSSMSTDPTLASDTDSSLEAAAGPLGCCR

LYN (human) = LYN (human) (UniProt P07948)
CAMK4 (human) = CAMK4 (human) (UniProt Q16566)
NEK11 (human) = NEK11 (human) (UniProt Q8NG66)
FYN (human) = FYN (human) (UniProt P06241)
Chain of FYN (human) (P06241 whole entry, looked up): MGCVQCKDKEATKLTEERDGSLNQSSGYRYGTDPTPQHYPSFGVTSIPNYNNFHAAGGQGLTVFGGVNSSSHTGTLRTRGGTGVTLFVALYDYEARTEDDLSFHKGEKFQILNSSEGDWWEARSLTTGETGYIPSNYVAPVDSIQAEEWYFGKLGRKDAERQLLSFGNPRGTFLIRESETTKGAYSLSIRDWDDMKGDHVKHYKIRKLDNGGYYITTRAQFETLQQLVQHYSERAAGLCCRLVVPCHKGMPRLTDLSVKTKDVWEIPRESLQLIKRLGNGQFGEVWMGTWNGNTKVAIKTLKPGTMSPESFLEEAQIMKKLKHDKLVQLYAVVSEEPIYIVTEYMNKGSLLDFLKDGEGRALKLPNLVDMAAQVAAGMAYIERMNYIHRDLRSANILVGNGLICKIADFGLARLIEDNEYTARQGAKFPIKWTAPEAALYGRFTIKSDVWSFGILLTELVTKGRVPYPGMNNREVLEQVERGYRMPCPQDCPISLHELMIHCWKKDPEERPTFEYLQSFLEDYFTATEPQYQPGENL

FGFR3 (human) = FGFR3 (human) (UniProt P22607)
TBK1 (human) = TBK1 (human) (UniProt Q9UHD2)
GRK4 (human) = GRK4 (human) (UniProt P32298)

## CC(=O)O/N=C1\C(=C2\C(=O)Nc3cc(Br)ccc32)Nc2ccccc21
RPS6KA4 KD2 (human)
  residual activity: 97.6%
PRKCZ (human)
  residual activity: 92.2%
WNK2 (human)
  residual activity: 98.6%
AURKA (human)
  residual activity: 55.4%
MAP3K3 (human)
  residual activity: 97.4%
PTK2B (human)
  residual activity: 85.9%
GRK7 (human)
  residual activity: 99.5%
PAK3 (human)
  residual activity: 99.1%
CHEK1 (human)
  residual activity: 100%
CDK2 CCNE1 (human)
  residual activity: 24.7%
EPHA3 (human)
  residual activity: 88.2%
DYRK1B (human)
  residual activity: 96%
DCLK2 (human)
  residual activity: 90.2%
MET (human)
  residual activity: 98.2%
CDC42BPA (human)
  residual activity: 85.8%
EPHA1 (human)
  residual activity: 83.2%
PBK (human)
  residual activity: 76.8%
HCK (human)
  residual activity: 43.1%
NEK1 (human)
  residual activity: 94.7%
CLK1 (human)
  residual activity: 83.3%
MARK2 (human)
  residual activity: 74.9%
NTRK3 (human)
  residual activity: 15.1%
PRKCA (human)
  residual activity: 105%
PRKCH (human)
  residual activity: 95.4%
MAPK3 (human)
  residual activity: 93.7%
FLT1 (human)
  residual activity: 98.6%
PRKCB2 (human)
  residual activity: 101%
PLK1 (human)
  residual activity: 105%
SIK2 (human)
  residual activity: 54.6%
MAPKAPK5 (human)
  residual activity: 94.9%
CSNK2A1 (human)
  residual activity: 81.8%
CDK6 CCND3 (human)
  residual activity: 40.9%
YES1 (human)
  residual activity: 46.4%
CAMKK2 (human)
  residual activity: 102%
MAPK8 (human)
  residual activity: 88.9%
LYN (human)
  residual activity: 28.1% and 52.4%
CAMK4 (human)
  residual activity: 86.1%
NEK11 (human)
  residual activity: 110%
FYN (human)
  residual activity: 20.9%
FGFR3 (human)
  residual activity: 46.5%
TBK1 (human)
  residual activity: 78.5%
GRK4 (human)
  residual activity: 97.6%

## COc1cc2ncnc(N3CCN(C(=O)Nc4ccc(Oc5ccccc5)cc4)CC3)c2cc1OC
RPS6KA4 KD2 (human)
  residual activity: 96.2%
PRKCZ (human)
  residual activity: 96%
WNK2 (human)
  residual activity: 102%
AURKA (human)
  residual activity: 79.6%
MAP3K3 (human)
  residual activity: 83.7%
PTK2B (human)
  residual activity: 91.2%
GRK7 (human)
  residual activity: 95.7%
PAK3 (human)
  residual activity: 98.1%
CHEK1 (human)
  residual activity: 99.4%
CDK2 CCNE1 (human)
  residual activity: 92.1%
EPHA3 (human)
  residual activity: 93.7%
DYRK1B (human)
  residual activity: 93.5%
DCLK2 (human)
  residual activity: 90.6%
MET (human)
  residual activity: 107%
CDC42BPA (human)
  residual activity: 95.4%
EPHA1 (human)
  residual activity: 102%
PBK (human)
  residual activity: 85.8%
HCK (human)
  residual activity: 91.7%
NEK1 (human)
  residual activity: 92.6%
CLK1 (human)
  residual activity: 89.4%
MARK2 (human)
  residual activity: 97.4%
NTRK3 (human)
  residual activity: 89%
PRKCA (human)
  residual activity: 98%
PRKCH (human)
  residual activity: 86.1%
MAPK3 (human)
  residual activity: 102%
FLT1 (human)
  residual activity: 79%
PRKCB2 (human)
  residual activity: 102%
PLK1 (human)
  residual activity: 96.6%
SIK2 (human)
  residual activity: 96%
MAPKAPK5 (human)
  residual activity: 118%
CSNK2A1 (human)
  residual activity: 96.2%
CDK6 CCND3 (human)
  residual activity: 100%
YES1 (human)
  residual activity: 106%
CAMKK2 (human)
  residual activity: 81.6%
MAPK8 (human)
  residual activity: 90.5%
LYN (human)
  residual activity: 102% and 97.8%
CAMK4 (human)
  residual activity: 102%
NEK11 (human)
  residual activity: 107%
FYN (human)
  residual activity: 112%
FGFR3 (human)
  residual activity: 99.9%
TBK1 (human)
  residual activity: 96.3%
GRK4 (human)
  residual activity: 94.7%

## Cn1nc2c3c(cccc31)C(=O)c1ccccc1-2
RPS6KA4 KD2 (human)
  residual activity: 105%
PRKCZ (human)
  residual activity: 97.9%
WNK2 (human)
  residual activity: 104%
AURKA (human)
  residual activity: 89.4%
MAP3K3 (human)
  residual activity: 94.4%
PTK2B (human)
  residual activity: 102%
GRK7 (human)
  residual activity: 113%
PAK3 (human)
  residual activity: 101%
CHEK1 (human)
  residual activity: 93.7%
CDK2 CCNE1 (human)
  residual activity: 89.4%
EPHA3 (human)
  residual activity: 93.5%
DYRK1B (human)
  residual activity: 93.1%
DCLK2 (human)
  residual activity: 94.2%
MET (human)
  residual activity: 107%
CDC42BPA (human)
  residual activity: 106%
EPHA1 (human)
  residual activity: 94.8%
PBK (human)
  residual activity: 108%
HCK (human)
  residual activity: 94.6%
NEK1 (human)
  residual activity: 78.3%
CLK1 (human)
  residual activity: 92.7%
MARK2 (human)
  residual activity: 94.1%
NTRK3 (human)
  residual activity: 71.6%
PRKCA (human)
  residual activity: 96.1%
PRKCH (human)
  residual activity: 94.3%
MAPK3 (human)
  residual activity: 98.9%
FLT1 (human)
  residual activity: 84.3%
PRKCB2 (human)
  residual activity: 97.8%
PLK1 (human)
  residual activity: 97%
SIK2 (human)
  residual activity: 100%
MAPKAPK5 (human)
  residual activity: 94.5%
CSNK2A1 (human)
  residual activity: 90.2%
CDK6 CCND3 (human)
  residual activity: 101%
YES1 (human)
  residual activity: 94.5%
CAMKK2 (human)
  residual activity: 74.9%
MAPK8 (human)
  residual activity: 87.2%
LYN (human)
  residual activity: 96.1% and 97.7%
CAMK4 (human)
  residual activity: 100%
NEK11 (human)
  residual activity: 105%
FYN (human)
  residual activity: 93.8%
FGFR3 (human)
  residual activity: 95.9%
TBK1 (human)
  residual activity: 88.8%
GRK4 (human)
  residual activity: 105%
